Results on four substances are retold here after patent EP1388586A2, “Identification of broadly reactive DR restricted epitopes” (priority 1998, dated 1999).

Like-named read-outs stand apart in the source and are kept apart here. Ends that are not written are not given here.

One test has as its target T1, DRB1*0101 (DR1) (Homo sapiens, UniProt P01903+P01911, A100R/D57E/F55L/F60I/F76Y/I96L/L162R/M171V/P40L/Q125E/R42F/V115G/Y59C).
T1 construct: used as sources of human HLA class II molecules; endogenous in cells; host or cells: LG2 (EBV-transformed homozygous B cell line)
As to the kind of experiment: Class II peptide-binding assay, DR1.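 Note: competition assay: unlabeled test peptides inhibit binding of a radiolabeled probe peptide to purified DR, with half-maximal inhibition taken as an approximate dissociation constant Kd.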

The next test concerns the target T2, DRB5*0101 (DR2w2a) (Homo sapiens, UniProt P01903+Q30154).
T2 construct: used as sources of human HLA class II molecules; endogenous in cells; host or cells: GM3107 (EBV-transformed homozygous B cell line)
The experiment in a line: Class II peptide-binding assay, DR2w2a (DR2w2B2).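 Note: competitive binding assay: unlabeled peptide inhibiting binding of a radiolabeled probe peptide to purified DR molecules at pH 7.0, IC50 approximating Kd, lower means stronger binding.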

The next test addresses T3, DRB1*0401 (DR4w4) (Homo sapiens, UniProt P01903+P01911, A100K/A169T/F76Y/I96L/K127E/L162R/M171V/N62H/P40V/Q125Y/R42H/S133A/S149N/S66Y/V115G/V209L/W38E).
T3 construct: used as sources of human HLA class II molecules; endogenous in cells; host or cells: PREISS (EBV-transformed homozygous B cell line)
The experiment in a line: Class II peptide-binding assay, DR4w4.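 Note: unlabeled test peptides compete with a radiolabeled probe peptide for binding to affinity-purified HLA-DR, with DR amount titrated to capture a small fraction of label, IC50 approximating Kd.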

Another test concerns the target DRB1*0405 (DR4w15) (Homo sapiens, UniProt P01903+P01911, A100R/A169T/D86S/F76Y/I96L/K127E/L162R/M171V/N62H/P40V/Q125Y/R42H/S133A/S149N/S66Y/V115G/V209L/W38E). As to the kind of experiment: Class II peptide-binding assay, DR4w15.
Another test addresses T4, DRB1*1201 (DR5w12) (Homo sapiens, UniProt P01903+P01911, A100R/A169T/D57E/D86V/F55L/H45Y/K41T/L162R/M171V/P40S/Q125H/Q178H/Q39Y/Q99D/R42G/S66L/T262R/V114A/V67L/W38E/Y59H/Y61H/Y89S).
T4 construct: used as sources of human HLA class II molecules; endogenous in cells; host or cells: Herluf (EBV-transformed homozygous B cell line)
As to the kind of experiment: Class II peptide-binding assay, DR5w12.

A further test has as its target DRB1*1302 (DR6w19) (Homo sapiens, UniProt P01903+P01911, A100E/A169T/K41T/L162R/M171V/P40S/Q125H/Q178H/Q39Y/Q99D/R42S/S66N/T262R/V115G/W38E/Y61H). It is filed as binding. The note with it: Table V B) Correct Predictions; read-out: Binding Capacity (IC50% nM) DR6w19.
The next test has as its target DRB1*0701 (DR7) (Homo sapiens, UniProt P01903+P01911, A100R/A102G/A103Q/D57E/D86V/E43K/F76Y/K127E/L162R/M171V/P40G/Q125H/Q99D/R33Q/R42Y/R54Q/S133A/S66F/T210M/V115G/Y107V/Y59L/Y89S). The experiment in a line: Class II peptide-binding assay, DR7.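 Note: unlabeled peptides compete with an iodinated probe peptide for binding to affinity-purified HLA-DR at neutral pH, DR amount titered to bind a small tracer fraction, IC50 approximating Kd.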
The target of the next test is T5, DRB1*0802 (DR8w2) (Homo sapiens, UniProt P01903+P01911, A100R/A103L/A169T/F76Y/H45Y/I96F/K41T/L162R/M171V/P40S/Q125H/Q178H/Q39Y/Q99D/R218S/R42G/S66Y/V115G/W38E).
T5 construct: used as sources of human HLA class II molecules; endogenous in cells; host or cells: OLL (EBV-transformed homozygous B cell line)
As to the kind of experiment: Class II peptide-binding assay, DR8w2.

The subject of test [1] is panel of purified HLA DR molecules. It counts as binding, human.
The target of the next test is T6, DRB10404 (DR4w14) (Homo sapiens, UniProt P01903+P01911, A100R/A169T/F76Y/I96L/K127E/L162R/M171V/N62H/P40V/Q125Y/R42H/S133A/S149N/S66Y/V209L/W38E).
T6 construct: used as sources of human HLA class II molecules; endogenous in cells; host or cells: BIN40 (EBV-transformed homozygous B cell line)
The experiment in a line: Class II peptide-binding assay, DR4w14.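 Note: unlabeled peptides compete with a radiolabeled probe for binding to affinity-purified HLA-DR, neutral pH, class II amount titrated to bind a small fraction of label, IC50 approximates Kd.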 As to conditions: read-out: DR4w14 nM (In IC50 Format); purified HLA DR4w14.

The target of another test is T7, DRB1*1101 (DR5w11) (Homo sapiens, UniProt P01903+P01911, A100R/A169T/A87E/I96F/K41T/L162R/M171V/P40S/Q125H/Q178H/Q39Y/Q99D/R42S/S66Y/T262R/V115G/W38E).
T7 construct: used as sources of human HLA class II molecules; endogenous in cells; host or cells: SWEIG (EBV-transformed homozygous B cell line)
T7 sequence (P01903 26-254, other chains not shown): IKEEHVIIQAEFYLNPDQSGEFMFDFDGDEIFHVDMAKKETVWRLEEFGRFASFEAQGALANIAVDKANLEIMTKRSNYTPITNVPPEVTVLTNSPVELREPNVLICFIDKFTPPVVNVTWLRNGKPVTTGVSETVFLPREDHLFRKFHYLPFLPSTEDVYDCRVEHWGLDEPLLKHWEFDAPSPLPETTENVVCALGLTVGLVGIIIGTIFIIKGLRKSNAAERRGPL
As to the kind of experiment: Class II peptide-binding assay, DR5w11.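 Note: competition by unlabeled test peptide against iodinated probe peptide binding to affinity-purified HLA-DR, class II amount titrated beforehand, half-maximal inhibitory concentration read as approximate Kd.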

The next test has as its target T8, DRB4*0101 (DRw53) (Homo sapiens, UniProt P01903+P13762, G164S).
T8 construct: expressed in transfected cells; host or cells: L257.6 transfected fibroblasts
It counts as binding. The note with it: read-out: DRw53 nM (In IC50 Format).

Another test has as its target T9, DRB1*1501 (DR2w2b) (Homo sapiens, UniProt P01903+P01911).
T9 construct: expressed in transfected cells; host or cells: L466.1 transfected fibroblasts
The experiment in a line: Class II peptide-binding assay, DR2w2b (DR2w2B1). As to conditions: Table V A) Non Predictions; read-out: Binding Capacity DR2w2b.

For a further test, the target named is T10, DRB1*0901 (DR9) (Homo sapiens, UniProt P01903+P01911, A100R/A103E/D57H/D86V/F55Y/F60I/F76Y/I96F/K127E/L162R/M171V/P40D/Q125H/Q99R/R33Q/R42F/S133A/S66N/T210M/V115G/W38K/Y107V/Y59G/Y89S).
T10 construct: used as sources of human HLA class II molecules; endogenous in cells; host or cells: HTC9074 (EBV-transformed homozygous B cell line); gift of Dr. Paul Harris
The experiment in a line: Class II peptide-binding assay, DR9. The note with it: Table V A) Non Predictions; read-out: Binding Capacity DR9.

Setting [2] is: Table V A) Non Predictions, read-out: Binding Capacity DR1.
Setting [3] is: Table V A) Non Predictions, read-out: Binding Capacity DR4w4.
Setting [4] is: Table V A) Non Predictions, read-out: Binding Capacity DR4w15.
Where [5] appears, read: Table V A) Non Predictions, read-out: Binding Capacity DR5w11.
The mark [6] stands for this setting: Table V A) Non Predictions, read-out: Binding Capacity DR8w2.
Where [7] appears, read: Table V A) Non Predictions, 12 DR molecules listed.
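Throughout, for Total Alleles Bound: competitive inhibition of radiolabeled probe peptide binding to purified HLA DR molecules, with inhibitory potency of unlabeled peptides taken as an approximation of affinity.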
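Throughout, for additional DR types bound: competitive inhibition of radiolabeled probe peptide binding to purified HLA DR molecules, with inhibitory potency of unlabeled peptides taken as an approximation of affinity.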

DRB1*1302 (DR6w19), sequence (P01903 26-254, other chains not shown): as above
Method for DRB1*0405 (DR4w15): (§1) Class II peptide-binding assays. […] These assays were chosen as to be representative of the most common DR alleles.
(§2) Radiolabeled peptides were iodinated using the chloramine-T method. […] In appropriate stoichiometric conditions, the IC50 of an unlabeled test peptide to the purified DR is a reasonable approximation of the affinity of interaction (Kd). Peptides were tested in two to four completely independent experiments. […] Final detergent concentration in the incubation mixture was 0.05% Nonidet P-40. Assays were performed at pH 7.0 with the exception of DR3, which was performed at pH 4.5, and DRw53, which was performed at pH 5.0.
(§3) All subsequent inhibition and direct binding assays were the performed using these class II concentrations.
DR4w15. The β4 product DRw53 is co-expressed with DR4w15 and the determination of the specificity of the DR4w1 binding assay is complicated in that the same radiolabeled ligand is used for both the DR4w15 and DRw53 binding assays.
Method for DRB1*0802 (DR8w2): as §1, §2, §3
DR8w2 and DR8w3. The β1 specificity of the DR8w2 and DR8w3 assays is obvious in that no β3 (and/or B4 and β5) molecule is expressed.
Method for DRB1*0901 (DR9): as §1
(§4) In appropriate stoichiometric conditions, the IC50 of an unlabeled test peptide to the purified DR is a reasonable approximation of the affinity of interaction (Kd). Peptides were tested in two to four completely independent experiments. […] Final detergent concentration in the incubation mixture was 0.05% Nonidet P-40. Assays were performed at pH 7.0 with the exception of DR3, which was performed at pH 4.5, and DRw53, which was performed at pH 5.0.
as §3
Method for DRB1*1201 (DR5w12): as §1, §4, §3
Method for DRB1*1302 (DR6w19): The lysates were cleared of debris and nuclei by centrifugation at 10,000 x g for 20 min.
Affinity purification of HLA-DR molecules.
as §1, §2, §3
DR6w19. The DR6w19 assay utilizes as the source of class II molecules the EBV transformed homozygous cell line H0301, which co-expresses DRB30301 (DR52a). While the radiolabeled ligand used in the DR6w19 assay is different than that used for the DR52a assay, the ligand is related (i.e., is a single substitution analog) to a high affinity DR52a binder. As was done in the case of DR4w15, the specificity of the assay was investigated by analyzing the binding capacity of a panel of naturally occurring peptides for DR6w19 and DR52a.
Method for DRB1*1501 (DR2w2b): as §1, §4, §3
Method for DRB4*0101 (DRw53): as §1, §2, §3

For LAAIIFLFGPPTALRS [Peptide 1136.28], the IC50 is 0.23 nM on DRB1*0101 (DR1) (Table V B) Correct Predictions, read-out: Binding Capacity (IC50% nM) DR1); 1480 nM on DRB5*0101 (DR2w2a) (Table V B) Correct Predictions, read-out: Binding Capacity (IC50% nM) DR2w2a); 849 nM on DRB1*0401 (DR4w4) (Table V B) Correct Predictions, read-out: Binding Capacity (IC50% nM) DR4w4); 6670 nM on DRB1*0405 (DR4w15) (Table V B) Correct Predictions, read-out: Binding Capacity (IC50% nM) DR4w15); 4480 nM at DRB1*1201 (DR5w12) (Table V B) Correct Predictions, read-out: Binding Capacity (IC50% nM) DR5w12); 3180 nM on DRB1*1302 (DR6w19). For the same substance, the IC50 is 3620 nM at DRB1*0701 (DR7) (Table V B) Correct Predictions, read-out: Binding Capacity (IC50% nM) DR7) and 7540 nM on DRB1*0802 (DR8w2) (Table V B) Correct Predictions, read-out: Binding Capacity (IC50% nM) DR8w2). Further, the “Total Alleles Bound” value in test [1] is listed as 3.
Take YARFQRQTTLKAAA-NH2 [Peptide 717.10]: the IC50 at DRB1*0101 (DR1) (read-out: DR1 nM (In IC50 Format), purified HLA DR1) was 2.9 nM; at DRB5*0101 (DR2w2a) (read-out: DR2w2B2 nM (In IC50 Format), purified HLA DR2w2β2) it was 55.6 nM; on DRB1*0401 (DR4w4) (read-out: DR4w4 nM (In IC50 Format), purified HLA DR4w4) it was 5.6 nM; on DRB10404 (DR4w14), 12.8 nM; on DRB1*1101 (DR5w11) (read-out: DR5w11 nM (In IC50 Format), purified HLA DR5w11), 8.7 nM; at DRB1*0701 (DR7) (read-out: DR7 nM (In IC50 Format), purified HLA DR7), 3570 nM. Moreover, on DRB4*0101 (DRw53), the IC50 was 6.5 nM.
Take LFHYYFLSEKAPGSTV [Peptide 1136.04]: the IC50 is 24 nM at DRB1*0101 (DR1) (setting [2]); 1260 nM at DRB1*1501 (DR2w2b); 20 nM on DRB1*0401 (DR4w4) (setting [3]); 563 nM on DRB1*0405 (DR4w15) (setting [4]); 69 nM on DRB1*1101 (DR5w11) (setting [5]); 3330 nM on DRB1*0701 (DR7) (Table V A) Non Predictions, read-out: Binding Capacity DR7). The figures for the IC50 on DRB1*0802 (DR8w2) (setting [6]) and at DRB1*0901 (DR9) were 55 nM and 2880 nM, respectively. Besides, in test [1] ("non-predictions" peptides, beyond DR1, 4w4 or 7), the “additional DR types bound” value is “DR2w2 β2, DR4w15, 5w11 and 8w2”. Further, in [1] (setting [7]), the “Total Alleles Bound” value is listed as 6.
As for GPPTALRSFGFAFGYM [Peptide 1136.29], the IC50 on DRB1*0101 (DR1) (setting [2]) was 32 nM; on DRB1*1501 (DR2w2b) it was 1.1 nM; on DRB5*0101 (DR2w2a) (Table V A) Non Predictions, read-out: Binding Capacity DR2w2a), 468 nM; on DRB1*0401 (DR4w4) (setting [3]) it was 4330 nM; at DRB1*0405 (DR4w15) (setting [4]) it was 745 nM; on DRB1*1101 (DR5w11) (setting [5]), 6250 nM. In addition, the IC50 on DRB1*1201 (DR5w12) (Table V A) Non Predictions, read-out: Binding Capacity DR5w12) is 1000 nM; at DRB1*0802 (DR8w2) (setting [6]), 2970 nM; at DRB1*0901 (DR9) it was 183 nM. Besides, the “Total Alleles Bound” value in test [1] (setting [7]) was 7.
